In US10525269B2, “Methods for improving heart function” (THE JOHNS HOPKINS UNIVERSITY, priority 2010, dated 2020):
Entries after “also recorded” stand apart in the source; their conditions may differ.

How the values were obtained:
[1] = system: isolated myocytes; assay: Myocyte sarcomere shortening and whole-cell calcium transients; type: cell-based, dog; parameters: effect of PTX on zinterol-stimulated shortening and Ca2+ transients: dose or concentration left out as unconfirmed
Method: Myocyte sarcomere shortening and whole-cell calcium transients were assessed with an inverted microscope (Ellipse TE2001, Nikon) equipped with an image-fluorescence system (MyoCam, IonOptix).
Adenovirus-mediated gene transfer of GFP, RGS2, or RGS3 was implemented by adding a minimal volume of the FBS-free MEM containing the gene-carrying adenovirus (100 multiplicities of infection). The full volume of FBS-free MEM was supplied after culture for another 1 to 2 hours. RGS expression and myocyte functional changes were assessed at 24 hours after transfection.

[2] = system: cAMP; assay: Membrane-localized cAMP FRET probe (ICUE3) in isolated myocytes; type: cell-based, dog; settings: in presence of IBMX
Text: Adult myocytes were infected with an adenovirus expressing either the modified EPAC-based cAMP FRET sensor (ICUE3) (DiPilato et al. (1999) J Biol Chem. 274:22048-22052) or SR-localized PKA activity sensor SR-AKAR3 (Liu et al. (2011) Biochem Biophys Res Commun. 404:581-586). Just before study, cells were washed two times with Hanks' balanced salt solution and imaged at room temperature in the dark. Dual-emission ratio imaging used a 420DF20 excitation filter, a 450DRLP dichroic mirror, and two emission filters (475DF40 for cyan fluorescent protein and 535DF25 for yellow fluorescent protein) and was performed on a Zeiss Axiovert 200 M microscope with a MicroMAX BFT512 cooled charge-coupled device camera (Roper Scientific) controlled by MetaFluor 6.2 software (Universal Imaging). […]
To further clarify the nature of the altered β2-AR signalling, studies were performed in isolated myocytes infected with an adenovirus containing a plasma membrane-targeted adenosine 3′,5′-monophosphate (cAMP)-sensitive fluorescence resonance energy transfer (FRET) probe (ICUE3) based on the EPAC1 (exchange protein directly activated by cAMP 1) binding domain (FIG. 6A; DiPilato et al. (1999) J Biol Chem. 274:22048-22052). […]

[3] = system: PKA; assay: SR-localized PKA activity FRET sensor (SR-AKAR3) in myocytes; type: cell-based, dog
Text: Adult myocytes were infected with an adenovirus expressing either the modified EPAC-based cAMP FRET sensor (ICUE3) (DiPilato et al. (1999) J Biol Chem. 274:22048-22052) or SR-localized PKA activity sensor SR-AKAR3 (Liu et al. (2011) Biochem Biophys Res Commun. 404:581-586). Just before study, cells were washed two times with Hanks' balanced salt solution and imaged at room temperature in the dark. Dual-emission ratio imaging used a 420DF20 excitation filter, a 450DRLP dichroic mirror, and two emission filters (475DF40 for cyan fluorescent protein and 535DF25 for yellow fluorescent protein) and was performed on a Zeiss Axiovert 200 M microscope with a MicroMAX BFT512 cooled charge-coupled device camera (Roper Scientific) controlled by MetaFluor 6.2 software (Universal Imaging). Fluorescent images (taken every 20 to 30 s) were background-corrected by subtracting autofluorescence intensities of untransfected cells (or background with no cells) from the emission intensities of cells expressing reporters.
To further clarify the nature of the altered β2-AR signalling, studies were performed in isolated myocytes infected with an adenovirus containing a plasma membrane-targeted adenosine 3′,5′-monophosphate (cAMP)-sensitive fluorescence resonance energy transfer (FRET) probe (ICUE3) based on the EPAC1 (exchange protein directly activated by cAMP 1) binding domain (FIG. 6A; DiPilato et al. (1999) J Biol Chem. 274:22048-22052). After 24 hours, cells were stimulated with either zinterol or fenoterol, each in the presence of a broad-spectrum phosphodiesterase (PDE) inhibitor, IBMX. […] Previous studies have proposed that reduced Gαi coupling to the β2-AR can modify the targeting of cAMP, resulting in enhanced protein kinase A (PKA) activation of sarcoplasmic reticulum (SR) calcium handling proteins and thus augmentation of the Ca^2+ and associated myocyte shortening (Kuschel et al. (1999) J. Biol. Chem. 274:22048-22052).

[4] = Pearce (2009); cited from earlier work

Compound: CC(C)(Cc1ccccc1)NCC(O)c1ccc(O)c(NS(C)(=O)=O)c1 (stereo not shown) [zinterol]
- response to zinterol ([1]; AVA cells): responded robustly
- shortening and Ca2+ transient response to zinterol ([1]; cells from resynchronized hearts): enhanced responses
- zinterol-stimulated cAMP increase (FRET ratio) ([2]; resynchronization models vs other groups incl. control): exceeded that in the other groups; also recorded: greater response
- PKA activation at the SR ([3]; CRT cells): activation was detectable; also recorded: showed PKA activation
- PKA stimulation detected at the SR ([3]; myocytes from HFdys or HFsyn): negligible PKA stimulation

Compound: CC(C)NCC(O)c1ccc(O)c(O)c1 (stereo not shown) [isoproterenol]
- isoproterenol-stimulated shortening, relaxation, and peak calcium ([1]; AVA myocytes, compared with CRT): similar
- isoproterenol-stimulated sarcomere shortening and relengthening, peak Ca2+ transient and decay rate ([1]; myocytes from HFdys or HFsyn): equally depressed; also recorded: markedly and similarly depressed
- isoproterenol-stimulated sarcomere shortening and relengthening, peak Ca2+ transient and decay rate ([1]; myocytes from resynchronization models (CRT, V3A3)): back to near-control levels; also recorded: returned to control levels

Compound: pertussis toxin [PTX]
- effect of PTX on zinterol-stimulated functional or Ca2+ response ([1]; AVA myocytes): not further altered; also recorded: minimal augmentation
- effect of PTX pretreatment on isoproterenol-stimulated sarcomere shortening (% SS) and whole-cell calcium transient ([1]; HFdys and HFsyn): greatly enhanced both behaviors
- effect of PTX on zinterol-stimulated shortening and Ca2+ transients ([1]; cells from HFdys and HFsyn): greatly amplified the response; also recorded: marked augmentation
- effect of PTX on zinterol-stimulated shortening and Ca2+ transients ([1]; cells from resynchronized hearts (CRT, V3A3)): little changed
- effect of PTX on zinterol-stimulated shortening and Ca2+ transients ([1]; control myocytes): augmented zinterol-stimulated shortening and Ca^2+ transients slightly
- effect of PTX pretreatment on isoproterenol-stimulated sarcomere shortening (% SS) and whole-cell calcium transient ([1]; resynchronized models): no impact

Compound: CC(Cc1ccc(O)cc1)NCC(O)c1cc(O)cc(O)c1 (single isomer, unassigned) [fenoterol as a mixture of R,R-enantiomer and S,S-enantiomer, fenoterol]
- mortality in asthma use [4]: worsened death

Compound: CC(Cc1ccc(O)cc1)NCC(O)c1cc(O)cc(O)c1 (stereo not shown) [fenoterol]
- fenoterol response compared with zinterol alone ([1]; HFdys and HFsyn): augmented over zinterol alone
- fenoterol-stimulated cAMP response (FRET ratio) ([2]; all groups): all responded similarly; also recorded: similarly elevated response
- PKA activation at the SR ([3]; cells from all models): PKA activation was detected
- PKA activation at the SR ([3]; cells from all models, listed as Fenoterol): stimulated PKA at the SR in all models
